Measurements reported in patent US8796463B2 (priority 2009, dated 2014).

Experiments:
[1] = log P by HPLC on reversed phase columns (EEC directive 79/831 Annex V.A8); format: physicochemical; settings: pH 2.7, 0.1% formic acid in water / acetonitrile gradient
Protocol: Measurement of log P values was performed according EEC directive 79/831 Annex V.A8 by HPLC (High Performance Liquid Chromatography) on reversed phase columns with the following method:
measurement of LC-MS was done at pH 2.7 with 0.1% formic acid in water and with acetonitrile (contains 0.1% formic acid) as eluent with a linear gradient from 10% acetonitrle to 95% acetonitrile.
Calibration was done with not branched alkan2-ones (with 3 to 16 carbon atoms) with known log P-values (measurement of log P values using retention times with linear interpolation between successive alkanones). lambda-maX-values were determined using UV-spectra from 200 nm to 400 nm and the peak values of the chromatographic signals.

Phytophthora infestans = format: in vivo; settings: tomato, preventive spray, 100 ppm of active ingredient, evaluated 7 days after inoculation
Plasmopara viticola = test: Plasmopara test (grapevines) / preventive; format: in vivo; settings: preventive spray, 10 ppm of active ingredient, evaluated 6 days after inoculation
Protocol: Plasmopara Test (Grapevines)/Preventive
To produce a suitable preparation of active compound, 1 part by weight of active compound is mixed with the stated amounts of solvent and emulsifier, and the concentrate is diluted with water to the desired concentration.
To test for preventive activity, young plants are sprayed with the preparation of active compound at the stated rate of application. After the spray coating has dried on, the plants are inoculated with an aqueous spore suspension of Plasmopara viticola and then remain for 1 day in an incubation cabinet at approximately 20° C. and a relative atmospheric humidity of 100%. The plant is subsequently placed for 4 days in a greenhouse at approximately 21° C. and a relative atmospheric humidity of approximately 90%. The plants are then misted and placed for 1 day in an incubation cabinet.
The test is evaluated 6 days after the inoculation. 0% means an efficacy which corresponds to that of the untreated control, while an efficacy of 100% means that no disease is observed.

Row | Compound | logp [1] | Efficacy % (Phytophthora infestans) [%] | Efficacy % (Plasmopara viticola) [%]
1 | Cc1ccc2c(c1)OC(C(=O)Nc1nc(CON=C(c3ccccc3)c3nnnn3C)cs1)CO2 (centres unmarked) [Example 12] | 3.78 | 95 | 
2 | Cc1nnnn1C(=NOCc1csc(NC(=O)C2Oc3ccccc3O2)n1)c1ccccc1 [Example 46] | 3.31 | 75 | 
3 | Cc1nnnn1C(=NOCc1csc(NC(=O)C2CCc3cc(I)ccc3O2)n1)c1ccccc1 (centres unmarked) [Example 38] | 4.49 | 95 | 
4 | COc1cccc2c1OC(C(=O)Nc1cccc(CON=C(c3ccccc3)n3nnnc3C)n1)CC2 (centres unmarked) [Example 22] | 3.99 | 80 | 
5 | Cc1ccc2c(c1)OC(C(=O)Nc1cccc(CON=C(c3ccccc3)n3nnnc3C)n1)CO2 (centres unmarked) [Example 26] | 4.11 | 95 | 
6 | COc1ccc2c(c1)OC(C(=O)Nc1nc(CON=C(c3ccccc3)c3nnnn3C)cs1)CC2 (centres unmarked) [Example 40] | 3.78 | 98 | 96
7 | Cc1nnnn1C(=NOCc1cccc(NC(=O)C2Oc3ccccc3O2)n1)c1ccccc1 [Example 57] | 3.48 | 88 | 
8 | Cn1nnnc1C(=NOCc1cccc(NC(=O)c2cc(=O)c3ccccc3o2)n1)c1ccccc1 [Example 59] | 3.27 | 95 | 
9 | Cn1nnnc1C(=NOCc1csc(NC(=O)C2COc3ccccc3O2)n1)c1ccccc1 (centres unmarked) [Example 14] | 3.46 | 90 | 
10 | Cn1nnnc1C(=NOCc1csc(NC(=O)C2CC(=O)c3cc(F)ccc3O2)n1)c1ccccc1 (centres unmarked) [Example 16] | 3.29 | 93 | 
11 | Cc1nnnn1C(=NOCc1cccc(NC(=O)C2COc3ccccc32)n1)c1ccccc1 (centres unmarked) [Example 58] | 3.39 |  | 
12 | Cn1nnnc1C(=NOCc1csc(NC(=O)C2CCc3cc(F)ccc3O2)n1)c1ccccc1 (centres unmarked) [Example 19] | 3.8 | 95 | 
13 | Cc1nnnn1C(=NOCc1cccc(NC(=O)C2CC(=O)c3cc(F)ccc3O2)n1)c1ccccc1 (centres unmarked) [Example 29] | 3.53 | 90 | 
14 | Cc1ccc2c(c1)OC(C(=O)Nc1cccc(CON=C(c3ccccc3)c3nnnn3C)n1)CO2 (centres unmarked) [Example 7] | 4.03 | 95 | 75
15 | Cn1nnnc1C(=NOCc1csc(NC(=O)C2Cc3ccccc3O2)n1)c1ccccc1 (centres unmarked) [Example 42] | 3.39 | 89 | 100
16 | COc1ccc2c(c1)OC(C(=O)Nc1cccc(CON=C(c3ccccc3)c3nnnn3C)n1)CC2 (centres unmarked) [Example 39] | 3.96 | 95 | 
17 | Cn1nnnc1C(=NOCc1cccc(NC(=O)C2COc3ccccc3O2)n1)c1ccccc1 (centres unmarked) [Example 9] | 3.69 | 85 | 97
18 | Cc1nnnn1C(=NOCc1csc(NC(=O)C2Cc3ccccc3O2)n1)c1ccccc1 (centres unmarked) [Example 45] | 3.44 | 98 | 96
19 | Cn1nnnc1C(=NOCc1cccc(NC(=O)C2CCc3cc(I)ccc3O2)n1)c1ccccc1 (centres unmarked) [Example 2] | 4.7 | 95 | 
20 | Cc1nnnn1C(=NOCc1csc(NC(=O)c2cc(=O)c3ccccc3o2)n1)c1ccccc1 [Example 44] | 3.21 | 95 | 
21 | Cc1cccc2c1OC(C(=O)Nc1cccc(CON=C(c3ccccc3)c3nnnn3C)n1)CO2 (centres unmarked) [Example 8] | 4.08 | 95 | 87
22 | Cc1nnnn1C(=NOCc1csc(NC(=O)C2COc3ccc(C(C)(C)C)cc3O2)n1)c1ccccc1 (centres unmarked) [Example 33] | 4.67 | 90 | 
23 | Cn1nnnc1C(=NOCc1csc(NC(=O)C2Oc3ccccc3O2)n1)c1ccccc1 [Example 48] | 3.29 | 80 | 
24 | Cc1nnnn1C(=NOCc1cccc(NC(=O)C2Cc3ccccc3O2)n1)c1ccccc1 (centres unmarked) [Example 56] | 3.71 | 100 | 85
25 | Cc1ccc2c(c1)OC(C(=O)Nc1nc(CON=C(c3ccccc3)n3nnnc3C)cs1)CO2 (centres unmarked) [Example 34] | 3.83 | 95 | 
26 | Cc1cccc2c1OC(C(=O)Nc1nc(CON=C(c3ccccc3)n3nnnc3C)cs1)CO2 (centres unmarked) [Example 35] | 3.87 | 95 | 

Row | Compound | logp [1] | Efficacy % (Phytophthora infestans) [%] | Efficacy % (Plasmopara viticola) [%]
27 | Cc1cccc2c1OC(C(=O)Nc1nc(CON=C(c3ccccc3)c3nnnn3C)cs1)CO2 (centres unmarked) [Example 13] | 3.83 | 98 | 
28 | Cc1nnnn1C(=NOCc1csc(NC(=O)C2COc3ccccc3O2)n1)c1ccccc1 (centres unmarked) [Example 36] | 3.51 | 95 | 
29 | Cc1nnnn1C(=NOCc1cccc(NC(=O)C2COc3ccc(C(C)(C)C)cc3O2)n1)c1ccccc1 (centres unmarked) [Example 25] | 5.03 | 93 | 
30 | Cn1nnnc1C(=NOCc1cccc(NC(=O)C2COc3ccccc32)n1)c1ccccc1 (centres unmarked) [Example 61] | 3.37 |  | 
31 | COc1cccc2c1OC(C(=O)Nc1nc(CON=C(c3ccccc3)c3nnnn3C)cs1)CC2 (centres unmarked) [Example 18] | 3.64 | 95 | 
32 | Cn1nnnc1C(=NOCc1cccc(NC(=O)C2Oc3ccccc3O2)n1)c1ccccc1 [Example 60] | 3.44 | 95 | 97
33 | Cn1nnnc1C(=NOCc1csc(NC(=O)C2CCc3cc(I)ccc3O2)n1)c1ccccc1 (centres unmarked) [Example 17] | 4.44 | 93 | 
34 | Cn1nnnc1C(=NOCc1csc(NC(=O)C2COc3ccccc32)n1)c1ccccc1 (centres unmarked) [Example 49] | 3.19 |  | 
35 | Cn1nnnc1C(=NOCc1csc(NC(=O)c2cc(=O)c3ccccc3o2)n1)c1ccccc1 [Example 47] | 3.17 | 70 | 
36 | COc1cccc2c1OC(C(=O)Nc1cccc(CON=C(c3ccccc3)c3nnnn3C)n1)CC2 (centres unmarked) [Example 3] | 3.92 | 95 | 
37 | Cn1nnnc1C(=NOCc1cccc(NC(=O)C2CC(=O)c3cc(F)ccc3O2)n1)c1ccccc1 (centres unmarked) [Example 1] | 3.46 | 93 | 
38 | COc1cccc2c1OC(C(=O)Nc1nc(CON=C(c3ccccc3)n3nnnc3C)cs1)CC2 (centres unmarked) [Example 30] | 3.69 | 95 | 
39 | Cc1nnnn1C(=NOCc1cccc(NC(=O)C2CCc3cc(F)ccc3O2)n1)c1ccccc1 (centres unmarked) [Example 23] | 4.11 | 90 | 
40 | Cc1nnnn1C(=NOCc1csc(NC(=O)C2CC(=O)c3cc(F)ccc3O2)n1)c1ccccc1 (centres unmarked) [Example 37] | 3.33 | 95 | 
41 | Cn1nnnc1C(=NOCc1cccc(NC(=O)C2COc3ccc(C(C)(C)C)cc3O2)n1)c1ccccc1 (centres unmarked) [Example 6] | 4.92 | 93 | 
42 | Cc1nnnn1C(=NOCc1csc(NC(=O)C2CCc3ccccc3O2)n1)c1ccccc1 (centres unmarked) [Example 32] | 3.83 | 95 | 
43 | Cc1nnnn1C(=NOCc1cccc(NC(=O)C2CCc3ccccc3O2)n1)c1ccccc1 (centres unmarked) [Example 24] | 4.08 | 93 | 
44 | Cc1nnnn1C(=NOCc1cccc(NC(=O)C2CCc3cc(I)ccc3O2)n1)c1ccccc1 (centres unmarked) [Example 21] | 4.81 | 80 | 
45 | Cc1nnnn1C(=NOCc1csc(NC(=O)C2CCc3cc(F)ccc3O2)n1)c1ccccc1 (centres unmarked) [Example 31] | 3.87 | 95 | 
46 | Cn1nnnc1C(=NOCc1csc(NC(=O)C2COc3ccc(C(C)(C)C)cc3O2)n1)c1ccccc1 (centres unmarked) [Example 15] | 4.62 | 90 | 
47 | Cc1nnnn1C(=NOCc1cccc(NC(=O)C2COc3ccccc3O2)n1)c1ccccc1 (centres unmarked) [Example 28] | 3.78 | 98 | 
48 | Cn1nnnc1C(=NOCc1csc(NC(=O)C2CCc3ccccc3O2)n1)c1ccccc1 (centres unmarked) [Example 20] | 3.78 | 93 | 
49 | Cn1nnnc1C(=NOCc1cccc(NC(=O)C2CCc3ccccc3O2)n1)c1ccccc1 (centres unmarked) [Example 5] | 4.01 | 95 | 89
50 | Cc1cccc2c1OC(C(=O)Nc1cccc(CON=C(c3ccccc3)n3nnnc3C)n1)CO2 (centres unmarked) [Example 27] | 4.15 | 95 | 
51 | Cc1nnnn1C(=NOCc1cccc(NC(=O)c2cc(=O)c3ccccc3o2)n1)c1ccccc1 [Example 43] | 3.33 | 85 | 
52 | Cn1nnnc1C(=NOCc1cccc(NC(=O)C2CCc3cc(F)ccc3O2)n1)c1ccccc1 (centres unmarked) [Example 4] | 4.01 | 95 | 
